Reference: patent US20120015063A1, “COMPOSITION FOR TREATMENT AND/OR PREVENTION OF SKIN DISORDER” (priority 2009, published 2012)

Key:
[1] = tested on: hairless mice of a photoaging model; assay: Skin moisture content by CORNEOMETER CM825, mixed-diet administration (Example 2); type: in vivo, Hos: HR-1 hairless mice; conditions: 0.24% glucosamine-mixed diet
[2] = tested on: hairless mice of a photoaging model; assay: Histological analysis of HE-stained dorsal skin (epidermis thickness, edema), mixed-diet administration (Example 2); type: in vivo, Hos: HR-1 hairless mice; conditions: 0.24% glucosamine-mixed diet
[3] = tested on: type I collagen; assay: Quantification of type I collagen in skin extract by SDS-PAGE and Western blotting (Example 2); type: in vivo, Hos: HR-1 hairless mice; conditions: 0.24% glucosamine-mixed diet, UV-irradiated
Description: After the grouping, UV-irradiated groups were irradiated with UV light three times a week. Specifically, for the first week, 1 minute of UV irradiation was carried out. For the second week, 2 minutes of UV irradiation, and for the third and fourth week, 3 minutes of UV irradiation were conducted. From the fourth week to the time of dissection completed, 4 minutes of UV irradiation were carried out.
A UVB lump GL20SE (SANKYO DENKI) was used to carry out UV irradiation having irradiation intensity of 0.3 mW/cm^2. […] Irradiation intensity was adjusted by using a digital ultraviolet light intensity meter, UV-340 (AS ONE Corporation). During irradiation, mice were left for one and a half hour in an individualized cage having a size of 9 cm×5 cm×4 cm. In order to decrease a difference in irradiation intensity for respective cages, the mice were irradiated while subjected to a rotation in every occasion.
A frozen and crushed skin was degreased using methanol for 24 hours. Then, an appropriate amount of PBS (−) containing protease inhibitors was added, and the sample was stirred with a rotator and washed twice to remove serum components, etc. […]

[4] = tested on: hyaluronic acid (HA); assay: Identification of GAG in skin extract by cellulose acetate membrane electrophoresis (Example 2); type: in vivo, Hos: HR-1 hairless mice; conditions: 0.24% glucosamine-mixed diet, UV-irradiated
Description: After the grouping, UV-irradiated groups were irradiated with UV light three times a week. Specifically, for the first week, 1 minute of UV irradiation was carried out. For the second week, 2 minutes of UV irradiation, and for the third and fourth week, 3 minutes of UV irradiation were conducted. From the fourth week to the time of dissection completed, 4 minutes of UV irradiation were carried out. The total irradiation amount was 1.35 J. In addition, moisture content and an amount of food ingested were measured twice a week, and body weight was measured once a week.
A UVB lump GL20SE (SANKYO DENKI) was used to carry out UV irradiation having irradiation intensity of 0.3 mW/cm^2. […] Irradiation intensity was adjusted by using a digital ultraviolet light intensity meter, UV-340 (AS ONE Corporation). During irradiation, mice were left for one and a half hour in an individualized cage having a size of 9 cm×5 cm×4 cm. […]

[5] = tested on: carbonyl proteins; assay: Quantification of carbonyl proteins in skin tissue by Oxyblot Western blotting (Example 2); type: in vivo, Hos: HR-1 hairless mice; conditions: 0.24% glucosamine-mixed diet, UV-irradiated
Description: After one week of acclimatization, 54 six-week-old male Hos: HR-1 hairless mice were used in experiments. The below-described diet was used, and the mice were reared under conditions at 25° C. while keeping a free access to food and water. In addition, during measurements of the skin moisture content, a humidity meter was used to determine humidity in an animal room. All experiments were conducted under approval (No. 19-76) of Animal Care and Use Committee of Tokyo University of Agriculture and Technology.
Preparation of an administration diet was ordered to Oriental Yeast Co., Ltd. First, 0.072% mangosteen pericarp extract-mixed diet and 0.15% mangosteen pericarp extract-mixed diet were used. In addition, 0.24% glucosamine-mixed diet was used as a positive control, and CRF-1 diet was used as a negative control. A daily amount of mangosteen pericarp extract ingested was set to 120 mg/kg body weight for the 0.072% group, and set to 250 mg/kg body weight for the 0.15% group as a rough guideline.
A study schedule is illustrated in FIG. 1. A study period was set to 8 weeks, and the study was carried out from October to December in 2007. […] The total irradiation amount was 1.35 J. In addition, moisture content and an amount of food ingested were measured twice a week, and body weight was measured once a week. […]

[6] = tested on: hairless mice, UVB irradiation; assay: Skin moisture content by CORNEOMETER CM 825, oral forced administration (Example 3); type: in vivo; conditions: 20 mg/ml collagen solution, 0.1 ml/10 g body weight orally daily, UV-irradiated (collagen (+) group)
Description: Skin moisture content was measured using CORNEOMETER® CM825 (manufactured by COURAGE+KHAZAKA electronic GMBH) twice a week, the measurement being carried out by contacting a probe onto a lumbar region of a mouse prior to UVB irradiation. The measurements were conducted five times, and the average of them was designated as a measured value.
An administration sample employed a mangosteen pericarp formulation. Specifically, a formulation having a ratio of a mangosteen pericarp extract:gum arabic=1:1 was used. One having only gum arabic was used as a control, and collagen was used as a positive control. Solutions having respective concentrations were prepared. A solution having a concentration of 0.1 ml/10 g body weight was orally administered every day during the rearing period by using a stomach tube. Two kinds (a high concentration (24 mg/ml) and a low concentration (12 mg/ml)) of a solution containing a mangosteen pericarp extract were prepared. Then, 24 mg/ml of a gum arabic solution and 20 mg/ml of a collagen solution were prepared.
After 1 week of acclimatization, grouping was conducted based on skin moisture content and viscoelasticity. […]

Row | Molecule | skin moisture content at week 8 ([1]; UV-irradiated (GlcN (+) group)) | skin moisture content compared to control (+) ([1]; UV-irradiated, weeks 7 and 8) | thickness of the epidermis compared to control (−) ([2]; UV-irradiated) | thickness of the epidermis ([2]; UV-irradiated (GlcN (+) group)) [μm] | type I collagen band intensity (control (−) set to 1; average of α-chain and β-chain) [3] | band intensity of HA (control (−) set to 1) [4] | carbonyl protein band intensity (control (−) set to 1) [5] | skin moisture content at week 7 [6]
1 | N[C@H]1C(O)O[C@H](CO)[C@@H](O)[C@@H]1O (some centres unmarked) [GlcN, glucosamine] | 62.96±2.78 | significant increase | significant increase in the thickness of the epidermis | 39.46±9.56 | 1.25 | 0.58 | 1.63 | –
2 | collagen | – | – | – | – | – | – | – | 68.54±2.91
